Experimental data published in publication PMC7684622, “The application of L‐glutaminase for the synthesis of the immunomodulatory γ‐D‐glutamyl‐L‐tryptophan and the kokumi‐imparting γ‐D‐glutamyl peptides” (Food Science & Nutrition, 2020).

Key:
Format in all cases: biochemical
[1] = system: T1, L-glutaminase of Bacillus amyloliquefaciens; experiment: transpeptidation, gamma-D-Glu-L-Trp formed, by HPLC / UPLC-MS; conditions: gamma-glutamyl donor; fixed 25 mM L-Trp; apparent; read-out: Synthesis
T1 construct: gene ggt; commercial enzyme preparation (Amano Enzyme China); called L-Gln amidohydrolase EC 3.5.1.2 with gamma-glutamyl transpeptidase activity
Excerpt: transpeptidation, gamma-D-Glu-L-Trp formed, by HPLC / UPLC-MS on L-glutaminase of Bacillus amyloliquefaciens

[2] = system: T1, L-glutaminase of Bacillus amyloliquefaciens; experiment: transpeptidation, gamma-L-Glu-L-Trp formed, by HPLC / UPLC-MS; conditions: gamma-glutamyl donor; fixed 25 mM L-Trp; apparent; read-out: Synthesis
Excerpt: transpeptidation, gamma-L-Glu-L-Trp formed, by HPLC / UPLC-MS on L-glutaminase of Bacillus amyloliquefaciens

[3] = system: T1, L-glutaminase of Bacillus amyloliquefaciens; experiment: transpeptidation, product by HPLC / UPLC-MS; conditions: acceptor; fixed 25 mM D-Gln; apparent; read-out: Synthesis
Excerpt: transpeptidation, product by HPLC / UPLC-MS on L-glutaminase of Bacillus amyloliquefaciens

[4] = system: T1, L-glutaminase of Bacillus amyloliquefaciens; experiment: hydrolysis, HPLC / UPLC-MS; conditions: hydrolysis reaction; apparent
Excerpt: hydrolysis, HPLC / UPLC-MS on L-glutaminase of Bacillus amyloliquefaciens

Row | Structure (SMILES) | Km [3] [mM] | Km [4] [mM] | also measured
1 | NC(=O)CC[C@@H](N)C(=O)O [D-Gln] | – | – | Km [1]: 5.53 ± 0.98 mM
2 | NC(=O)CC[C@H](N)C(=O)O [L-Gln] | – | – | Km [2]: 0.98 ± 0.08 mM
3 | CSCC[C@H](N)C(=O)O [L-Met] | 88.8 ± 6.12 | – | –
4 | N[C@@H](Cc1ccccc1)C(=O)O [L-Phe] | 46.3 ± 2.32 | – | –
5 | CC(C)[C@H](N)C(=O)O [L-Val] | 76.6 ± 3.25 | – | –
6 | CC(C)[C@H](NC(=O)CC[C@@H](NC(=O)CC[C@@H](N)C(=O)O)C(=O)O)C(=O)O [γ-[D-Glu]2-L-Val] | – | 90.4 ± 6.25 | –

The next lines start with results.

Row | Km [3] [mM] | Km [4] [mM] | Structure (SMILES) | also measured
7 | 32.5 ± 3.86 | – | N[C@@H](Cc1c[nH]c2ccccc12)C(=O)O [L-Trp] | –
8 | – | 62.2 ± 4.61 | CSCC[C@H](NC(=O)CC[C@@H](N)C(=O)O)C(=O)O [γ-D-Glu-L-Met] | –
9 | – | 52.8 ± 3.02 | N[C@H](CCC(=O)N[C@@H](Cc1ccccc1)C(=O)O)C(=O)O [γ-D-Glu-L-Phe] | –
10 | – | 36.7 ± 2.86 | N[C@H](CCC(=O)N[C@@H](Cc1c[nH]c2ccccc12)C(=O)O)C(=O)O [γ-D-Glu-L-Trp] | –
11 | – | 68.8 ± 5.25 | CC(C)[C@H](NC(=O)CC[C@@H](N)C(=O)O)C(=O)O [γ-D-Glu-L-Val] | –
12 | – | 15.7 ± 1.82 | N[C@@H](CCC(=O)N[C@@H](Cc1c[nH]c2ccccc12)C(=O)O)C(=O)O [γ-L-Glu-L-Trp] | –
